In patent US12227520B2 (priority 2019, dated 2025):
Where two headings read alike, the source gives them in different places.

How the values were obtained:
pLai RLuc reporter virus = experiment: microbe, parasite or virus in culture; type: cell-based, HIV
Method in brief: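 Read-out is Renilla luciferase after 72 h at 37 °C in MT-4 cells infected 2 h beforehand with pLai RLuc reporter virus; compounds diluted 1:3.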

[1] = Cytotoxicity assay in MT-4 cells; type: cell-based, human; settings: human, uninfected MT-4 cells, 5 days incubation; read-out: CC50
Method in brief: (§1)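 For cytotoxicity, uninfected MT-4 cells were incubated with compounds 5 days at 37 °C, with 10 μM puromycin marking base cytotoxicity. Parallel plates used HIV-1 IIIB-infected (1:250 stock dilution) or mock cells with 5 μM AZT and no-drug controls. Read-out: CellTiter-Glo chemiluminescence.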

uninfected MT-4 cells = experiment: Cytotoxicity assay in MT-4 cells; type: cell-based, human; settings: uninfected MT-4 cells, 5 days incubation
Method in brief: as §1

HIV-1 (IIIB) = experiment: Antiviral assay in MT-4 cells (HIV MT-4 antiviral assay); type: cell-based; settings: HIV-1 (IIIB) in MT-4 cells, 5 days incubation; read-out: EC50
Method in brief: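 Read-out is CellTiter-Glo chemiluminescence after 5-day culture at 37° C, giving protection of MT-4 cells from HIV-1 IIIB cytopathicity. Compounds tested in 1:3 dilution series in complete RPMI; controls were no drug, mock infection and 5 μM AZT.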

[2] = CCM (RPMI media, 10% FBS, 1% P/S), 72-h incubation, read-out: Antiviral Serum Shift RLuc CCM
[3] = HS/CCM (RPMI media, 10% FBS, 50% HS, 1% P/S), 72-h incubation, read-out: Antiviral Serum Shift RLuc 50% HS

Row | Molecule | EC50 (pLai RLuc reporter virus; Human immunodeficiency virus 1, 72 h, read-out: Antiviral Serum Shift RLuc 50% HS, HS/CCM (RPMI media, 10% FBS, 50% HS, 1% P/S), 72-h incubation) [nM] | EC50 (pLai RLuc reporter virus; Human immunodeficiency virus 1, 72 h, read-out: Antiviral Serum Shift RLuc CCM, CCM (RPMI media, 10% FBS, 1% P/S), 72-h incubation) [nM] | CC50 at 5 days [1] [nM] | CC50 (uninfected MT-4 cells) [nM] | EC50 (pLai RLuc reporter virus; read-out: Antiviral Serum Shift RLuc 50% HS, HS/CCM (RPMI media, 10% FBS, 50% HS, 1% P/S), 72-h incubation) [nM] | EC50 (pLai RLuc reporter virus; read-out: Antiviral Serum Shift RLuc CCM, CCM (RPMI media, 10% FBS, 1% P/S), 72-h incubation) [nM] | EC50 (HIV-1 (IIIB)) [nM] | EC50 (pLai RLuc reporter virus; [2]) [nM] | EC50 (pLai RLuc reporter virus; [3]) [nM]
1 | O=C(NCc1ccc(F)cc1F)c1cn2c(c(O)c1=O)C(=O)N1CCc3ccccc3[C@@H]2C1 [Example 64-1, (13R)—N-(2,4-difluorobenzyl)-4-hydroxy-3,5-dioxo-3,5,8,13-tetrahydro-7H-6,13-methanobenzo[g]pyrido[1,2-a][1,4]diazonine-2-carboxamide] | 3.31 | 0.319 | 14800 | 12300 |  |  |  |  | 
2 | O=C(NCc1ccc(F)cc1F)c1cn2c(c(O)c1=O)C(=O)N1C[C@@H]2CCC[C@@H]1CF [Example 181, (3R,7S)—N-(2,4-difluorobenzyl)-3-(fluoromethyl)-12-hydroxy-1,11-dioxo-1,4,5,6,7,11-hexahydro-3H-2,7-methanopyrido[1,2-a][1,4]diazonine-10-carboxamide] |  |  |  | 9710 | 7.65 | 0.385 | 1.08 |  | 
3 | (3S,7S)-5-fluoro-12-hydroxy-3-methyl-1,11-dioxo-N-(2,4,6-trifluorobenzyl)-1,4,7,11-tetrahydro-3H-2,7-methanopyrido[1,2-a][1,4]diazonine-10-carboxamide [Example 118-1] |  |  |  | 11500 |  |  | 0.79 | 0.296 | 0.881
4 | (3S,7S)-5-fluoro-12-hydroxy-3-methyl-1,11-dioxo-N-(2,4,6-trifluorobenzyl)-1,6,7,11-tetrahydro-3H-2,7-methanopyrido[1,2-a][1,4]diazonine-10-carboxamide [Example 118-2] |  |  |  | 11600 |  |  | 1.17 | 0.249 | 0.507
